Experimental data reported in patent US9994551B2, “Pyridazine derivatives as RORc modulators” (Genentech, Inc., priority 2015, dated 2018).

target: T1, RORc ligand binding domain (Homo sapiens, UniProt P51449); assay: In vitro RORc ligand binding assay (25-[3H]hydroxycholesterol displacement, filter binding)
T1 construct: host or cells: E. coli
T1 sequence (P51449 269-508 limits assumed): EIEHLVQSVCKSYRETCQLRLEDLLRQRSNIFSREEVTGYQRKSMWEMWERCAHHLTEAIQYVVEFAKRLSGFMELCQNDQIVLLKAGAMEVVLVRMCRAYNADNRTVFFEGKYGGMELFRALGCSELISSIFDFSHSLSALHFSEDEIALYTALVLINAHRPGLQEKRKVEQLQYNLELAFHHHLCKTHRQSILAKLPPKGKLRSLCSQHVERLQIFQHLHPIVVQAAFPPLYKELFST
Method: This assay was used to determine a compound's potency in inhibiting activity of RORc by determining, Kiapp, IC50, or percent inhibition values.
On day of the assay, 100 uL of 0.05% CHAPS (in deionized H2O) was added to all wells of the GFB Unifilter plate and allowed soak for 1 h. A wash buffer of 50 mM HEPES (pH 7.4), 150 mM NaCl, and 5 mM MgCl2 was prepared to wash the filter plate. To prepare an assay buffer, BSA was added to the wash buffer to reach 0.01% and DTT was added to reach 1 mM.
The 20× compound stocks were diluted in DMSO with Assay Buffer 4-fold to reach 5× the final test concentration in 25% DMSO (10 uL compound+30 uL Assay Buffer). Solutions were mixed by aspiration several times with a pipette set on 50 uL volume. For the assay, 10 uL of 5× compound stock solutions in 25% DMSO were added to the assay plate in duplicate.
For two point screening, 10 mM stock compound solutions were diluted in DMSO to obtain 200 uM (20× the high test concentration) and then diluted 10-fold further to reach 20 uM (20× the low test concentration). The 20× stocks were diluted 4-fold with Assay Buffer (10 uL compound+30 uL Assay Buffer) to reach 5× the test concentrations (50 uM and 5 uM) and 10 uL were added to two assay plates for the duplicate wells. With each concentration tested on 2 plates, each set of 80 compounds used 4 assay plates (1 uM and 10 uM, with n=2).
For 25-hydroxycholesterol in 25% DMSO/75% Assay Buffer; 10 uL per well was used for NSB samples. Wells for Total Binding and No Receptor sample determination contained 10 uL of 25% DMSO/75% Assay Buffer per well.
Add 20 uL to all wells to reach 6 nM final concentration in the assay.
Stock receptor solution was diluted in assay buffer to obtain 1.5 ug/mL in Assay Buffer. 20 uL was added to all wells. For No Receptor samples, 20 uL Assay Buffer was substituted for receptor solution.
Assay plates were 96-well polypropylene V-bottom plates. 10 uL of 5× compound in 25% DMSO/75% Assay Buffer was added to Test wells. 10 uL of 25% DMSO/75% Assay Buffer was added to Total Binding or No Receptor wells. 10 uL of 5 uM 25-hydroxycholesterol in 25% DMSO/75% Assay Buffer was added to NSB wells. […] 20 uL of 1.5 ug/mL RORc receptor was added to wells (or 40 uL Assay Buffer to No R wells). Following addition to the wells, the plates were incubated 3 h at 25° C.
Using a Packard Filtermate Harvester, the filter plate were washed 4 times following transfer of the incubated samples. Plates were dry-filtered completely (2 h at 50° C. or overnight at room temperature). 50 uL Microscint 0 was added to all wells and read on Topcount protocol Inverted.

| SMILES | IC50 [nM] |
| --- | --- |
| CC1(C)[C@H]2CC[C@]1(OC(=O)N1CCC1)c1nnc(-c3c(F)cccc3F)cc12 [Compound 10, (5S,8R)-3-(2,6-difluorophenyl)-9,9-dimethyl-5,6,7,8-tetrahydro-5,8-methanocinnolin-8-yl azetidine-1-carboxylate] | 353 |
| CC[C@@H](O[C@@]12CC[C@@H](c3cc(-c4c(F)cccc4F)nnc31)C2(C)C)C(=O)N1CC(CO)C1 [Compound 38, (R)-2-(((5S,8R)-3-(2,6-difluorophenyl)-9,9-dimethyl-5,6,7,8-tetrahydro-5,8-methanocinnolin-8-yl)oxy)-1-(3-(hydroxymethyl)azetidin-1-yl)butan-1-one] | 144 |
| CC1(C)[C@H]2CC[C@]1(OS(=O)(=O)C(F)(F)F)c1nnc(-c3c(F)cccc3F)cc12 [Compound 6, (5S,8R)-3-(2,6-difluorophenyl)-9,9-dimethyl-5,6,7,8-tetrahydro-5,8-methanocinnolin-8-yl trifluoromethanesulfonate] | 6 |
| CNS(=O)(=O)N1CCC[C@H]([C@@]23CC[C@@H](c4cc(-c5c(F)cccc5F)nnc42)C3(C)C)C1 [Compound 138, 3-[5-(2,6-difluorophenyl)-11,11-dimethyl-3,4-diazatricyclo[6.2.1.02,7]undeca-2,4,6-trien-1-yl]-N-methyl-piperidine-1-sulfonamide] | 12 |
| CC1(C)[C@H]2CC[C@]1([C@H]1CCCN(C(=O)NC3COC3)C1)c1nnc(-c3c(F)cccc3F)cc12 [Compound 157, 3-[5-(2,6-difluorophenyl)-11,11-dimethyl-3,4-diazatricyclo[6.2.1.02,7]undeca-2,4,6-trien-1-yl]-N-(oxetan-3-yl)piperidine-1-carboxamide] | 6.1 |
| CC1(C)[C@H]2CC[C@]1([C@@H]1CN(Cc3ccccc3)CCO1)c1nnc(-c3c(F)cccc3F)cc12 [Compound 60, (R)-4-benzyl-2-((5R,8R)-3-(2,6-difluorophenyl)-9,9-dimethyl-5,6,7,8-tetrahydro-5,8-methanocinnolin-8-yl)morpholine] | 317 |
| CC[C@@H](O[C@@]12CC[C@@H](c3cc(-c4c(F)cccc4F)nnc31)C2(C)C)C(=O)NCC(C)(C)O [Compound 52, (R)-2-(((5S,8R)-3-(2,6-difluorophenyl)-9,9-dimethyl-5,6,7,8-tetrahydro-5,8-methanocinnolin-8-yl)oxy)-N-(2-hydroxy-2-methylpropyl)butanamide] | 49.5 |
| CC1(C)[C@H]2CC[C@]1([C@@H]1CCCNC1=O)c1nnc(-c3c(F)cccc3F)cc12 [Compound 139, 3-[5-(2,6-difluorophenyl)-11,11-dimethyl-3,4-diazatricyclo[6.2.1.02,7]undeca-2,4,6-trien-1-yl]piperidin-2-one] | 4400 |
| CC(C)(C)OC(=O)N1CCN[C@H]([C@@]23CC[C@@H](c4cc(-c5c(F)cccc5F)nnc42)C3(C)C)C1 [Compound 62, (R)-tert-butyl 3-((5R,8S)-3-(2,6-difluorophenyl)-9,9-dimethyl-5,6,7,8-tetrahydro-5,8-methanocinnolin-8-yl)piperazine-1-carboxylate] | 136 |
| CC1(C)[C@H]2CC[C@]1([C@H]1CCCN(c3ccncn3)C1)c1nnc(-c3c(F)cccc3F)cc12 [Compound 164, 5-(2,6-difluorophenyl)-11,11-dimethyl-1-(1-pyrimidin-4-yl-3-piperidyl)-3,4-diazatricyclo[6.2.1.02,7]undeca-2,4,6-triene] | 20 |
| CN(C)C(=O)N1CCC[C@H]([C@@]23CC[C@@H](c4cc(-c5c(F)cccc5F)nnc42)C3(C)C)C1 [Compound 97, (R)-3-((5R,8R)-3-(2,6-difluorophenyl)-9,9-dimethyl-5,6,7,8-tetrahydro-5,8-methanocinnolin-8-yl)-N,N-dimethylpiperidine-1-carboxamide] | 98.5 |
| CC(=O)N1CCO[C@@H]([C@@]23CC[C@@H](c4cc(-c5c(F)cccc5F)nnc42)C3(C)C)C1 [Compound 72, 1-((S)-2-((5R,8R)-3-(2,6-difluorophenyl)-9,9-dimethyl-5,6,7,8-tetrahydro-5,8-methanocinnolin-8-yl)morpholino)ethanone] | 119 |
| CNC(=O)N1CCO[C@H]([C@@]23CC[C@@H](c4cc(-c5c(F)cccc5F)nnc42)C3(C)C)C1 [Compound 69, (R)-2-((5R,8R)-3-(2,6-difluorophenyl)-9,9-dimethyl-5,6,7,8-tetrahydro-5,8-methanocinnolin-8-yl)-N-methylmorpholine-4-carboxamide] | 37.7 |
| CC1(C)[C@H]2CC[C@]1(c1nnc(C(N)=O)o1)c1nnc(-c3c(F)cccc3F)cc12 [Compound 2, 5-((5R,8R)-3-(2,6-difluorophenyl)-9,9-dimethyl-5,6,7,8-tetrahydro-5,8-methanocinnolin-8-yl)-1,3,4-oxadiazole-2-carboxamide] | 520 |

Now from value to compound:

| IC50 [nM] | SMILES |
| --- | --- |
| 277 | CC1(C)[C@H]2CC[C@]1([C@H]1CN(C(=O)C(O)CO)CCO1)c1nnc(-c3c(F)cccc3F)cc12 (stereo partly drawn) [Compound 76, 1-((S)-2-((5R,8R)-3-(2,6-difluorophenyl)-9,9-dimethyl-5,6,7,8-tetrahydro-5,8-methanocinnolin-8-yl)morpholino)-2,3-dihydroxypropan-1-one] |
| 120 | CC1(C)[C@H]2CC[C@]1(Oc1ccc(=O)[nH]c1)c1nnc(-c3c(F)cccc3F)cc12 [Compound 33, 5-(((5S,8R)-3-(2,6-difluorophenyl)-9,9-dimethyl-5,6,7,8-tetrahydro-5,8-methanocinnolin-8-yl)oxy)pyridin-2(1H)-one] |
| 133 | CC1(C)[C@H]2CC[C@]1(OCc1cnccn1)c1nnc(-c3c(F)cccc3F)cc12 [Compound 17, (5S,8R)-3-(2,6-difluorophenyl)-9,9-dimethyl-8-(pyrazin-2-ylmethoxy)-5,6,7,8-tetrahydro-5,8-methanocinnoline] |
| 60 | CC1(C)[C@H]2CC[C@]1([C@@H]1CN(c3ncn[nH]3)CCO1)c1nnc(-c3c(F)cccc3F)cc12 [Compound 155, 2-[5-(2,6-difluorophenyl)-11,11-dimethyl-3,4-diazatricyclo[6.2.1.02,7]undeca-2,4,6-trien-1-yl]-4-(1H-1,2,4-triazol-5-yl)morpholine] |
| 224 | CC1(C)[C@H]2CC[C@]1([C@@H]1CN(S(C)(=O)=O)CCO1)c1nnc(-c3c(F)cccc3F)cc12 [Compound 65, (R)-2-((5R,8R)-3-(2,6-difluorophenyl)-9,9-dimethyl-5,6,7,8-tetrahydro-5,8-methanocinnolin-8-yl)-4-(methylsulfonyl)morpholine] |
| 11 | CC1(C)[C@H]2CC[C@]1([C@H]1CCCN(C(=O)c3c[nH]c(=O)cn3)C1)c1nnc(-c3c(F)cccc3F)cc12 [Compound 121, 5-[3-[5-(2,6-difluorophenyl)-11,11-dimethyl-3,4-diazatricyclo[6.2.1.02,7]undeca-2,4,6-trien-1-yl]piperidine-1-carbonyl]-1H-pyrazin-2-one] |
| 74.5 | CC1(C)[C@H]2CC[C@]1([C@@H]1CN(C(=O)c3cnco3)CCO1)c1nnc(-c3c(F)cccc3F)cc12 [Compound 90, ((R)-2-((5R,8R)-3-(2,6-difluorophenyl)-9,9-dimethyl-5,6,7,8-tetrahydro-5,8-methanocinnolin-8-yl)morpholino)(oxazol-5-yl)methanone] |
| 74.8 | CC1(C)[C@H]2CC[C@]1(OC1(CC(N)=O)CC1)c1nnc(-c3c(F)cccc3F)cc12 [Compound 46, 2-(1-(((5S,8R)-3-(2,6-difluorophenyl)-9,9-dimethyl-5,6,7,8-tetrahydro-5,8-methanocinnolin-8-yl)oxy)cyclopropyl)acetamide] |
| 215 | CN1CCO[C@H]([C@@]23CC[C@@H](c4cc(-c5c(F)cccc5F)nnc42)C3(C)C)C1 [Compound 67, (R)-2-((5R,8R)-3-(2,6-difluorophenyl)-9,9-dimethyl-5,6,7,8-tetrahydro-5,8-methanocinnolin-8-yl)-4-methylmorpholine] |
